Test results: patent US20040067507A1, “Liver inflammation predictive genes” (priority 2002, published 2004)
Like-named read-outs stand apart in the source and are kept apart here.

Test system: Sprague Dawley rats Crl:CD
Format: in vivo, rat
Details: 72 h; for Inflamm. Score / Necr. Score: 1=no histopathology, 2 or higher=increasing severity
Text: In addition to the database described and utilized herein, other toxicology gene expression databases may be generated, and used to identify additional liver toxicity biomarkers, which may also be employed in the practice of the liver inflammation prediction methods of the invention. […] An example of compounds, dose levels, liver toxicity classifications and histopathology scores used in the Examples which follow are provided in Table 1. The compounds and dose levels are abbreviated in the Abbreviation Column. The Inflammation Score relates the histopathology liver inflammation, a score of “2” or higher indicates histopathology of increasing severity.
Identification of Correlating Genes: For the purpose of identifying candidate predictive genes, the database preferably includes histopathology scores for each animal which has been exposed to one or more agent(s). […] The scores are numerical scores that reflect the occurrence and severity of histopathological changes. These scores can be adjusted to have similar range to gene expression changes. […] Because the scores are numerical, they are suitable for use with a variety of statistical correlation and similarity measures.
Sprague Dawley rats Crl:CD from Charles River, Raleigh, N.C. were divided into treated rats that receive a specific concentration of the compound (see Table 1) and the control rats that only received the vehicle in which the compound is mixed (e.g., saline).
At specified timepoints (6 h, 24 h and 72 h) after administration (intraperitoneal route) of the compound, a set number of rats (usually 3 control and 3 treated) were euthanized and tissues collected. Each rat was heavily sedated with an overdose of CO2 by inhalation and a maximum amount of blood drawn. Exsanguination of the rat by this drawing of blood kills the rat. The method of collecting the tissues is very important and ensures preserving the quality of the mRNA in the tissues. The body of the rat was then opened up and prosectors rapidly removed the tissues (including liver) and immediately placed them into liquid nitrogen. […] The organs/tissues were then packaged into well-labeled plastic freezer quality bags and stored at −80 degrees until needed for isolation of the mRNA from a portion of the organ/tissue sample.
Correlation with Histopathology Scores: Histopathology scores for each animal (assigned on a compound-dose basis as indicated in Table 1) were entered with gene expression data by using the GeneSpring™ ‘Drawn Gene’ function. Correlations between inflammation histopathology scores and gene expression were conducted with the distance measures listed below: […]

NNC(=O)c1ccncc1 [isoniazid]
Liver Inflammation (50 mg/kg i.p.): no | Liver Necrosis (50 mg/kg i.p.): no | Inflamm. Score (50 mg/kg i.p.): 1 | Necr. Score (50 mg/kg i.p.): 1 | Liver Inflammation (200 mg/kg i.p.): no | Liver Necrosis (200 mg/kg i.p.): no | Inflamm. Score (200 mg/kg i.p.): 1 | Necr. Score (200 mg/kg i.p.): 1

c1ccc2c(c1)cc1ccc3cccc4ccc2c1c34 [benzo[a]pyrene]
Liver Inflammation (30 mg/kg i.p.): no | Liver Necrosis (30 mg/kg i.p.): no | Inflamm. Score (30 mg/kg i.p.): 1 | Necr. Score (30 mg/kg i.p.): 1

[Cl][Cd][Cl] [cadmium chloride]
Liver Inflammation (1 mg/kg i.p.): no | Liver Necrosis (1 mg/kg i.p.): no | Inflamm. Score (1 mg/kg i.p.): 1 | Necr. Score (1 mg/kg i.p.): 1 | Liver Inflammation (2 mg/kg i.p.): no | Liver Necrosis (2 mg/kg i.p.): no | Inflamm. Score (2 mg/kg i.p.): 1 | Necr. Score (2 mg/kg i.p.): 1 | Liver Inflammation (4 mg/kg i.p.): yes | Liver Necrosis (4 mg/kg i.p.): yes | Inflamm. Score (4 mg/kg i.p.): 2 | Necr. Score (4 mg/kg i.p.): 3
